Laboratory results published in the CheMixHub viscosity set.

Experiment: xn = mol fraction of the nth substance listed

CCC(C)N (configuration not stated) + O
viscosity [mPa·s], 101.33 kPa
Settings	x1 = 0.1	x1 = 0.1999	x1 = 0.3	x1 = 0.3998	x1 = 0.4994	x1 = 0.5999	x1 = 0.6998	x1 = 0.7997	x1 = 0.8999
298.15 K	2.276	2.556	2.232	1.774	1.322	0.9973	0.7605	0.5992	0.4885
303.15 K	1.937	2.173	1.917	1.538	1.165	0.8899	0.6906	0.552	0.4543
308.15 K	1.669	1.865	1.659	1.341	1.033	0.8024	0.6317	0.5102	0.4248
313.15 K	1.453	1.616	1.443	1.18	0.921	0.7245	0.5794	0.4736	0.3983
318.15 K	1.275	1.417	1.269	1.047	0.8266	0.6602	0.534	0.4409	0.3744
323.15 K	1.138	1.25	1.123	0.9361	0.7467	0.61	0.4935	0.4113	0.3528

CCCCCCCCCCCCCC[P+](CCCCCC)(CCCCCC)CCCCCC.c1nnc[n-]1 + O
Settings	viscosity [mPa·s]
298.15 K, 100 kPa, x2 = 0.7956	114

CCCCCCO + O
viscosity [mPa·s], 101 kPa
Settings	298.15 K	308.15 K	318.15 K
x2 = 0.0013	–	–	2.573
x2 = 0.0042	4.567	3.388	–
x2 = 0.0554	–	–	2.513
x2 = 0.0593	4.427	3.295	–
x2 = 0.1019	–	–	2.475
x2 = 0.1079	4.355	3.237	–
x2 = 0.1483	4.324	3.209	2.447
x2 = 0.1875	–	–	2.432
x2 = 0.1933	4.314	3.193	–
x2 = 0.2248	–	–	2.425
x2 = 0.2367	4.322	3.192	–
x2 = 0.2673	4.341	3.198	2.427
x2 = 0.2981	4.369	3.213	–
x2 = 0.3116	–	–	2.439

CCOCC + O
298.15 K, 101 kPa
Settings	viscosity [mPa·s]
x1 = 0.00334	0.9366
x1 = 0.00369	1.053
x1 = 0.00509	0.9597
x1 = 0.00551	1.073
x1 = 0.00769	0.9959
x1 = 0.00866	1.107
x1 = 0.00871	1.01
x1 = 0.0107	1.132
x1 = 0.0113	1.138
x1 = 0.0149	1.088
x1 = 0.973	0.27
x2 = 0.0179	0.269

CN(C)C(=N)NC(=N)N.Cl + O
viscosity [mPa·s]
Settings	298.15 K	303.15 K	308.15 K	313.15 K	318.15 K
100 kPa, x1 = 0.00018	0.894	–	–	–	–
100 kPa, x1 = 0.0003598	0.896	0.803	–	–	–
100 kPa, x1 = 0.0005412	0.898	0.805	0.726	–	–
100 kPa, x1 = 0.0007212	0.9	–	–	0.663	–
100 kPa, x1 = 0.0009	–	–	–	–	0.607
100 kPa, x1 = 0.0009014	0.902	0.809	0.73	0.665	–
100 kPa, x1 = 0.001079	0.904	0.811	0.732	0.667	–
100 kPa, x1 = 0.001259	0.906	–	0.734	0.669	–
100 kPa, x1 = 0.001439	0.908	0.815	0.736	0.671	–
100 kPa, x1 = 0.001619	0.91	0.817	0.738	0.673	–
100 kPa, x1 = 0.001798	0.912	0.819	0.74	0.675	–
100 kPa, x1 = 0.0018	–	–	0.739	0.675	0.613
100 kPa, x1 = 0.0027	–	–	0.75	0.68	0.622
101 kPa, x1 = 0.00011	–	–	0.721	–	0.597
101 kPa, x1 = 0.000241	–	–	0.723	–	0.598
101 kPa, x1 = 0.000481	–	–	0.726	–	0.6
101 kPa, x1 = 0.000722	0.903	–	0.729	–	0.601
101 kPa, x1 = 0.000965	0.907	–	0.732	–	0.604
101 kPa, x1 = 0.00121	0.91	–	0.735	–	0.606

C[NH+]1CCCC1=O.Cc1ccc(S(=O)(=O)[O-])cc1 + O
viscosity [mPa·s], 100 kPa
Settings	x1 = 0.00179	x1 = 0.003588	x1 = 0.005313	x1 = 0.008042	x1 = 0.01069	x1 = 0.01417	x1 = 0.02116	x1 = 0.02631	x1 = 0.03141
293.15 K	1.079	1.149	1.212	1.311	1.404	1.533	1.806	2.029	2.274
298.15 K	0.9575	–	1.073	1.157	–	1.358	–	1.819	2.048
303.15 K	0.8523	0.9062	0.9554	–	–	1.201	1.42	1.611	1.827
308.15 K	0.7695	0.8124	0.8523	0.9156	0.9784	–	–	1.444	1.64

Cc1cn([C@H]2CC(O)[C@@H](CO)O2)c(=O)[nH]c1=O (some centres not stated) + O
viscosity [mPa·s], 101.3 kPa
Settings	x1 = 9.02e-05	x1 = 0.000159	x1 = 0.0002266	x1 = 0.0003081	x1 = 0.0004541	x1 = 0.0004775
298.15 K	0.893	0.894	0.895	0.897	0.899	0.9
308.15 K	0.721	0.722	0.723	0.724	0.726	0.727
318.15 K	0.598	0.598	0.599	0.6	0.602	0.602

O=P([O-])(O)O.[NH4+] + O
viscosity [mPa·s], 101 kPa
Settings	293.15 K	303.15 K	313.15 K	323.15 K
x1 = 0.017	1.312	1.049	0.855	0.71
x1 = 0.038	1.826	1.442	1.17	0.972
x1 = 0.063	–	2.196	1.749	1.438
x1 = 0.095	–	–	–	2.325

O=[PH2][O-].O=[PH2][O-].[Mn+2] + O
Settings	viscosity [mPa·s]
298.15 K, 101.33 kPa, x1 = 0.0137	1.68

OCCOCCOCCOCCOCCOCCOCCO + O
viscosity [mPa·s], 100 kPa
Settings	293.15 K	298.15 K	303.15 K	308.15 K	313.15 K	318.15 K	323.15 K
x2 = 0.059	97.27	73.66	57.03	45.14	36.26	29.64	24.53
x2 = 0.088	93.78	71.34	53.69	42.57	34.29	28	23.21
x2 = 0.188	92.26	69.66	53.76	42.35	33.98	27.72	22.88
x2 = 0.221	92.02	69.89	53.68	42.29	33.97	27.67	22.86

OCCOCCOCCOCCOCCOCCOCCOCCO + O
viscosity [mPa·s], 100 kPa
Settings	293.15 K	298.15 K	303.15 K	308.15 K	313.15 K	318.15 K	323.15 K
x2 = 0.042	108.4	81.84	63.33	50.05	40.2	32.83	27.17
x2 = 0.111	107.4	81.02	62.63	49.38	39.67	32.32	26.74
x2 = 0.267	103	77.64	60.34	47.5	38.03	30.97	25.55
x2 = 0.294	98.4	74.46	57.33	45.14	36.19	29.5	24.36

CC(=O)CC(C)C + O=C1CCCCC1
298.15 K, 101 kPa
Settings	viscosity [mPa·s]
x1 = 0.1218	1.58
x1 = 0.2067	1.371
x1 = 0.3146	1.163
x1 = 0.3931	1.037
x1 = 0.534	0.872
x1 = 0.6373	0.773
x1 = 0.7694	0.672
x1 = 0.888	0.599

CCCCCCCCCCCCCC[P+](CCCCCC)(CCCCCC)CCCCCC.c1nnc[n-]1 + O=C=O
Settings	viscosity [mPa·s]
298.15 K, 100 kPa, x2 = 0.5	638

CCOCC + O=S(=O)(O)O
303.15 K, 101 kPa
Settings	viscosity [mPa·s]
x1 = 0.00853	206.9
x1 = 0.01735	203
x2 = 0.05093	2.73
x2 = 0.07611	3.096
x2 = 0.1322	4.36
x2 = 0.1739	5.79
x2 = 0.2412	9.824
x2 = 0.3269	21.94
x2 = 0.3684	34.8
x2 = 0.3933	47.52
x2 = 0.4239	67.01
x2 = 0.4513	87.88
x2 = 0.5139	134.5
x2 = 0.5527	153.7
x2 = 0.5826	161.5
x2 = 0.636	160.6
x2 = 0.6604	156.7
x2 = 0.729	133.8
x2 = 0.8088	127.2
x2 = 0.8194	127.2
x2 = 0.891	138.2
x2 = 0.9089	145.2
x2 = 0.9478	169.2
x2 = 0.9658	187.2
x2 = 0.9684	189.7
x2 = 0.9737	196.3

O=C1CCCCC1 + OCCO
293.15 K, 101.33 kPa
Settings	viscosity [mPa·s]
x2 = 0.1495	2.735
x2 = 0.2349	3.114
x2 = 0.293	3.566
x2 = 0.4345	4.882
x2 = 0.5042	5.922
x2 = 0.5172	6.179
x2 = 0.6565	9.855
x2 = 0.6965	11.02
x2 = 0.7152	11.2
x2 = 0.7398	12.4
x2 = 0.8522	17.59
x2 = 0.8845	18.73
